Laboratory results from patent US20080279961A1, “TELOMERE TARGETING AGENTS AS STEM CELLS DIRECTED TREATMENTS” (priority 2007, published 2008).
Entries after “also recorded” stand apart in the source; their conditions may differ.

Key:
R1 prostate cancer cells = test: side population analysis; type: cell-based
Text: In one embodiment of the invention, cancer stem cells have shorter telomeres than other cancer cells (FIG. 7). Side population analysis was done to distinguish between cancer stem cells in R1 prostate cancer cells and […]. A primitive CD34^low/neg stem cell population has been defined in normal bone marrow, which has the unique capacity to efflux lipophilic dyes such as Hoechst 33342 as a result of high levels of expression of P-glycoprotein (MDRa/ABCB1) transporter and BCRP (breast cancer resistance protein, ABCG2). […] R1 is the parental prostate cancer cell line with a SP of 0.36% of cells of the total population (100%). […] Subclones of the R1 chemosensitive prostate cancer cell line that are resistant to the clinically used cytotoxic agents mitoxantrone and docetaxel, show a much expanded SP of 45% and 83% of cells respectively. In fact docetaxel resistant R1 cells are almost all stem cell like cells.

UXF1138L xenografts [1] = test: tumor growth inhibition of subcutaneous xenografts; type: in vivo, nude mice
[2] = tolerability in xenograft studies (body weight, deaths, MTD)
Protocol: For the first in vivo experiment, tumor fragments (5×5 mm) from untreated donor animals were implanted subcutaneously into both flanks of recipient mice. Treatment was initiated 6 days after transplantation (=day 0, median tumor volume of ˜70 mm^3). Animals were randomized into groups following Lindner's randomization tables and treated by oral gavage with 5 mg/kg/d RHPS4 or vehicle (phosphate buffered saline) respectively (n=5-8 animals per group). […] Drug administration was repeated twice weekly for 8 times (Q3dx8) after randomization. Tumor growth was followed twice weekly by serial caliper measurement, body weights were recorded, and tumor volumes were calculated using the standard formula (length×width^2)/2, where length is the largest dimension and width the smallest dimension perpendicular to the length (Alley et al., 2004; Geran et al., 1972). The median relative tumor volume was plotted against time. Relative tumor volumes were calculated for each single tumor by dividing the tumor volume on day X by that on day 0 (time of randomization). Growth curves were analyzed in terms of tumor inhibition (treated/control, T/C, calculated as median tumor weight of treated divided by median tumor weight of control animals times 100). Statistical data analysis was done using non-parametrical Wilcoxon Mann-Whitney statistics. Median relative tumor volumes of each treatment group were compared with those of the vehicle control groups. P values less than 0.05 were considered statistically significant. SPSS 2000, SYSTAT version 10 software was used.
To conduct combination treatment with Paclitaxel, after 4 serial propagations of RHPS4 treated tumor tissue in nude mice (FIG. 1), RHPS4 was combined with Paclitaxel. Single agent Paclitaxel was given at 20 mg/kg i.v. on days 1 and 15. In combination with RHPS4 (given at 5 mg/kg p.o. twice weekly), only a single dose of Paclitaxel (20 mg/kg i.v.) was administered on day 1. Tumor growth parameters and body weight were assessed as described above.

UXF1138L xenografts [3] = conditions: mouse, in vivo; cited from earlier work

SMILES: COc1ccc2c3c([nH]c2c1)[C@H](CC(C)C)N1C(=O)[C@H](CCC(=O)OC(C)(C)C)NC(=O)[C@@H]1C3 [Ko143]
- effect on side population (SP) (R1 prostate cancer cells): abolishes the SP

SMILES: CC(=O)O[C@H]1C(=O)[C@@]2(C)[C@H]([C@H](OC(=O)c3ccccc3)[C@]3(O)C[C@H](OC(=O)[C@H](O)[C@@H](NC(=O)c4ccccc4)c4ccccc4)C(C)=C1C3(C)C)[C@]1(OC(C)=O)CO[C@@H]1C[C@@H]2O [Paclitaxel, reference compound]
- opt. Test/Control [%] (UXF1138L xenografts [1]; Passage #4, RHPS4 5 mg/kg p.o. twice weekly, Paclitaxel 20 mg/kg i.v.): 8%
- CR, complete remission (UXF1138L xenografts [1]; Passage #4, tumors per group): 2/12
- P, progression (UXF1138L xenografts [1]; Passage #4, tumors per group): 3/12
- PR, partial regression (UXF1138L xenografts [1]; Passage #4, tumors per group): 7/12
- antitumor response in words (UXF1138L xenografts [1]; Passage #4 UXF1138L xenografts): has single agent activity; also recorded: transient remissions; also recorded: Minor remissions
- Deaths [n/n], drug related death per mice per group ([2]; Passage #4): 0/6
- BWC, maximal median body weight change ([2]; mouse, in vivo): +6%

SMILES: COc1cccc2c1C(=O)c1c(O)c3c(c(O)c1C2=O)C[C@@](O)(C(=O)CO)C[C@@H]3O[C@H]1C[C@H](N)[C@H](O)[C@H](C)O1 [doxorubicin]
- response of UXF1138L xenograft to standard chemotherapy (UXF1138L xenografts [3]): resistant

SMILES: O=C1c2c(O)ccc(O)c2C(=O)c2c(NCCNCCO)ccc(NCCNCCO)c21 [mitoxantrone]
- response of UXF1138L xenograft to standard chemotherapy (UXF1138L xenografts [3]): resistant
